Measured values as given in paper PMC7910904, “Improving the Antioxidant Properties of Calophyllum inophyllum Seed Oil from French Polynesia: Development and Biological Applications of Resinous Ethanol-Soluble Extracts” (Antioxidants, 2021).
In brackets after ≈: the same amount, converted by molar mass.

Tests used:
[1] = DPPH assay; conditions: for IC50: metabolites and standards, in dichloromethane
Protocol: Experiments were performed according to previous procedures. Aliquots of dichloromethane solutions of oil or fractions (50–500 mg/mL) or test compounds (final concentration 0.01–2 mM) were added to 200 µL of a freshly prepared DPPH solution (75 mg/L), and the final volume was adjusted to 300 µL with dichloromethane to obtain a final DPPH concentration of 0.13 mM. The absorbance was read at 517 nm on a microplate reader 3 min after sample addition. Experiments were performed in triplicate and averaged. The DPPH inhibition was calculated as follows:Inhibition (%) = [100 × (A0 − A)/A0](1)

[2] = test system: Staphylococcus aureus (ATCC 6538); test: Antimicrobial disk-diffusion agar method; assay type: cell-based; conditions: for zone of inhibition at 20 µg/disc: Staphylococcus aureus, ATCC6538, 20 µg/disk, 24 h, read-out: S. aureus Diameter of the zone of inhibition; for Antimicrobial activity against S. aureus, in words: 20 µg per disc
[3] = Total peroxyl radical-trapping potential (TRAP) assay; conditions: for TRAP TE: metabolites and standards: activity of a 1 µM-solution relative to 1 µM Trolox
Protocol: The experimental protocol of the TRAP assay was previously reported. Briefly, AAPH (150 mM) was dissolved in 10 mL of Tris HCl buffer solution (100 mM, pH 7.4), and the solution was kept at 37 °C for 30 min to initiate thermal radical formation. A luminol stock solution (1 mM) was prepared in 50 mL Tris HCl buffer and kept in darkness at 4 °C. A 78 µM, working luminol solution was prepared before each assay by dilution in Tris HCl buffer. Samples for assays were prepared as follows: 2 mL of AAPH (final concentration, 100 mM) and 500 μL of luminol solution (final concentration, 13 µM) were introduced in a 3 mL tube; then, 500 μL of pure acetone (blank) or solution of the tested oil or extract in acetone (0.005–0.2 mg/mL) or DMSO (test compounds: 5–300 µM) were added and the mixture vortexed for 5 s before luminescence analysis. A calibration curve was obtained in the same conditions using the antioxidant Trolox (1–40 μM) as a standard.
Quantification of radical scavenging capacity was performed by integrating the area under the curve (AUC) for the sample and blank solutions, and the results are expressed as Trolox Equivalents (TE) using Equation (2):TE = ([Trolox] × ΔAUC Sample)/([Sample] × ΔAUC Trolox)(2) where ΔAUC Sample (Trolox) = AUC Blank − AUC Sample (Trolox).

[4] = test system: M. tuberculosis H37 RV; test: Anti-mycobacterial Microplate-based Alamar Blue assay (MABA); assay type: cell-based; conditions: Mycobacterium tuberculosis, H37RV
[5] = test system: 3T3 fibroblasts; test: MTT cytotoxicity on 3T3 fibroblasts; assay type: cell-based, murine; conditions: Mus musculus, Fibroblast, 50% viability after 48 h
[6] = test system: A549 human lung carcinoma cells; test: MTT cytotoxicity on A549 cells; assay type: cell-based; conditions: 50% viability after 48 h
[7] = Superoxide radical quenching (allopurinol-XO generator, lucigenin luminescence); conditions: glycine buffer/acetone
Protocol: All reactants were dissolved in glycine buffer, and the reaction was carried out at 25 °C [30]. […] The test tube was inserted in the luminometer, and reaction was initiated by adding a XO suspension (2 µL, 11 mU/mL). Luminescence was monitored for a total period of 7 min and O2^•− quenching was calculated by subtracting areas under the curve against blank. Each measurement was performed in triplicate.

[8] = Metal chelating capacity (ferrozine); conditions: EDTA equivalents per gram of extract
[9] = target: T1, Lipoxygenase (15-LOX, soybean) (Glycine max, UniProt P08170); test: Lipoxygenase inhibitory activity (Cayman kit); assay type: biochemical; conditions: compounds at 100 µg/mL
T1 sequence (P08170 1-839): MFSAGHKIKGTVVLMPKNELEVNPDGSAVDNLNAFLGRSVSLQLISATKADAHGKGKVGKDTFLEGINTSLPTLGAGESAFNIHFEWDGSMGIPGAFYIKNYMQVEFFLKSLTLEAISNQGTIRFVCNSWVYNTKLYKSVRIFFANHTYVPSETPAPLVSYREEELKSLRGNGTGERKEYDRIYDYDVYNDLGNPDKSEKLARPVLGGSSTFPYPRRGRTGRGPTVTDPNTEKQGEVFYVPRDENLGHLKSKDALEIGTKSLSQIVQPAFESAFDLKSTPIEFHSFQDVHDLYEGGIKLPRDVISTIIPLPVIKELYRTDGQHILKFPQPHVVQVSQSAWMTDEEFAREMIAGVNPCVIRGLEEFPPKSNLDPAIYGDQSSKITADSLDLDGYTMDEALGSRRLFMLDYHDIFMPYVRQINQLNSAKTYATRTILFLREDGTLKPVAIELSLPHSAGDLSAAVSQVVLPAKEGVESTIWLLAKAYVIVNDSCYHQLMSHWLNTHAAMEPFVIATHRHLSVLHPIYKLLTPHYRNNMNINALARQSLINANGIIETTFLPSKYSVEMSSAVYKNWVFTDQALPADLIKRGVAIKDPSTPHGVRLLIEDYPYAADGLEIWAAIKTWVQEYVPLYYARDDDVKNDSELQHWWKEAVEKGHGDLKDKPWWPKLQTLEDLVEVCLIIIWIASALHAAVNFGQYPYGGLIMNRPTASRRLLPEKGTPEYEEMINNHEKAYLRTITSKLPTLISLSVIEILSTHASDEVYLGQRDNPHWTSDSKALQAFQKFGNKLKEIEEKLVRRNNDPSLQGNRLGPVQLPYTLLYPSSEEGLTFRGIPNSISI
Protocol: Lipoxygenase (15-LOX, soybean) inhibitory activity was evaluated using a commercial assay kit (Cayman Chemicals Co; Item No. 760700) according to the manufacturer’s instructions. Solutions of test samples (10 μL) in methanol were added into 96-wells plates together with assay buffer, and the enzyme was added. The reaction was initiated by adding 10 μL of arachidonic acid to the wells and the plate was placed on a shaker for 15 min. Chromogen solution (100 μL) was added to the wells, the plate was then placed on a shaker for 10 min and absorbance was read at 495–500 nm. […] Results are expressed as a percentage relative to the activity without the test compound.

Row | SMILES | DPPH scavenging capacity, in words [1] | IC50 [1] | zone of inhibition at 20 µg/disc [2] | TRAP activity, in words [3] | TRAP TE [3] | Antimicrobial activity against S. aureus, in words [2] | MIC [4] | IC50 [5] | IC50 [6] | O2•− Quenching IC50 [7] | MCC [8] | inhibition at 100 µg/mL [9] | DPPH: times more active than inophyllums E and C [1] | TRAP efficiency relative to Trolox [3]
1 | CCCc1cc(=O)oc2c3c(c4c(c12)OC(C)(C)C=C4)O[C@H](C)[C@H](C)C3=O [Calanolide D] | inactive | > 1000 µM | – | – | – | – | – | – | – | – | – | – | – | –
2 | Cc1onc(-c2ccccc2)c1C(=O)N[C@@H]1C(=O)N2[C@@H]1SC(C)(C)[C@@H]2C(=O)O [Oxacillin, reference compound] | – | – | 30 ± 1 mm | – | – | – | – | – | – | – | – | – | – | –
3 | C[C@H]1Oc2c3c(c4c(-c5ccccc5)cc(=O)oc4c2C(=O)[C@@H]1C)OC(C)(C)C=C3 [Inophyllum C] | moderately active | 701 ± 9 µM | – | weakly active | 0.21 ± 0.04 TE | – | – | – | – | – | – | – | – | –
4 | C=C(C)C(CC=C(C)C)CC1(CC=C(C)C)C(=O)C(C(CCC)CC(=O)O)=C(O)C2=C1O[C@H](C)[C@@H](C)C2=O (stereo partly drawn) [Inocalophyllin B] | moderately active | 583 ± 17 µM | 20 ± 2 mm | significant TRAP activity | 1.07 ± 0.06 TE | active | > 15 µg/mL | 41 ± 5 µg/mL (≈ 77.8 µM) | 4.2 ± 1.3 µg/mL (≈ 7.97 µM) | – | – | – | – | –
5 | Cc1c(C)c2c(c(C)c1O)CCC(C)(C(=O)O)O2 (stereo not drawn) [Trolox, 6-hydroxy-2,5,7,8-tetramethylchroman-2-carboxylic acid, reference compound] | – | 21.2 ± 0.8 µM | – | – | 1 TE | – | – | – | – | – | – | – | – | –
6 | O=c1c(O)c(-c2ccc(O)c(O)c2)oc2cc(O)cc(O)c12 [Quercetin] | – | 14.1 ± 0.21 µM | – | – | 6.31 ± 0.24 TE | – | – | – | – | 0.083 ± 0.06 µg/mL | 105 ± 3 µmol EDTAE/g | 83 ± 2% | – | –
7 | Oc1ccc2c(c1)OCO2 [Sesamol, reference compound] | – | 66.9 ± 3.1 µM | – | – | 1.34 ± 0.09 TE | – | – | – | – | – | – | – | – | –
8 | CCCc1cc(=O)oc2c3c(c4c(c12)OC(C)(C)C=C4)O[C@H](C)[C@@H](C)C3=O [12-Oxocalanolide A] | inactive | > 1000 µM | 18 ± 2 mm | – | – | significant activity | > 15 µg/mL | 36 ± 8 µg/mL (≈ 97.7 µM) | 1.9 ± 0.1 µg/mL (≈ 5.16 µM) | – | – | – | – | –
9 | CCCc1cc(=O)oc2c3c(c4c(c12)OC(C)(C)C=C4)O[C@H](C)[C@@H](C)[C@@H]3O [Calanolide A] | slightly active | ~950 µM | 14 ± 1 mm | – | 0.40 ± 0.02 TE | – | 4.1 ± 0.3 µg/mL (≈ 11.1 µM) | 52 ± 8 µg/mL (≈ 140 µM) | 8.2 ± 1.7 µg/mL (≈ 22.1 µM) | – | – | – | – | –
10 | C/C=C(\C)C(=O)c1c(OC)c2c(c3c(-c4ccccc4)cc(=O)oc13)OC(C)(C)C=C2 [Calophyllolide] | slightly active | ~890 µM | 19 ± 3 mm | weakly active | 0.48 ± 0.08 TE | significant activity | > 15 µg/mL | 49 ± 4 µg/mL (≈ 118 µM) | 3.1 ± 0.9 µg/mL (≈ 7.44 µM) | – | – | – | – | –
11 | C/C=C(\C)C(=O)c1c(OC)c2c(c3c(CCC)cc(=O)oc13)OC(C)(C)C=C2 [Calanolide GUT 70] | slightly active | ~900 µM | – | weakly active | 0.30 ± 0.03 TE | – | – | – | – | – | – | – | – | –
12 | CCC(C)c1cc(=O)oc2c3c(c4c(c12)OC(C)(C)C=C4)OC(C)C(C)C3O (stereo not drawn) [Tamanolide D] | moderately active | 779 ± 7 µM | 12 ± 2 mm | – | 1.36 ± 0.20 TE | – | 5.1 ± 0.3 µg/mL (≈ 13.3 µM) | 46 ± 5 µg/mL (≈ 120 µM) | 9.3 ± 1.2 µg/mL (≈ 24.2 µM) | – | – | – | – | –
13 | C[C@@H]1[C@@H](C)Oc2c3c(c4c(-c5ccccc5)cc(=O)oc4c2[C@@H]1O)OC(C)(C)C=C3 [Inophyllum P] | strongly active | 26.2 ± 3.1 µM | 17 ± 1 mm | strong antioxidant activity | 4.11 ± 0.10 TE | significant activity | 5.7 ± 0.3 µg/mL (≈ 14.1 µM) | 92 ± 4 µg/mL (≈ 227 µM) | 11.3 ± 0.6 µg/mL (≈ 27.9 µM) | – | – | – | 20–30 times | about four times more efficient than Trolox
14 | COc1ccc(O)c(C(C)(C)C)c1 [BHA, reference compound] | – | 94.9 ± 6.1 µM | – | – | 3.46 ± 0.20 TE | – | – | – | – | – | – | – | – | –
15 | C[C@@H]1C(=O)c2c(c3c(c4c(-c5ccccc5)cc(=O)oc24)OC(C)(C)C=C3)O[C@@H]1C [Inophyllum E] | moderately active | 481 ± 7 µM | 14 ± 2 mm | weakly active | 0.91 ± 0.04 TE | – | > 15 µg/mL | 120 ± 9 µg/mL (≈ 298 µM) | 44.8 ± 2.2 µg/mL (≈ 111 µM) | – | – | – | – | –
16 | [H]/N=C(/N)N[C@H]1[C@H](O)[C@@H](O)[C@H](O[C@@H]2O[C@@H](C)[C@](O)(C=O)[C@H]2O[C@@H]2O[C@@H](CO)[C@H](O)[C@@H](O)[C@@H]2NC)[C@@H](N/C(N)=N\[H])[C@@H]1O [Streptomycin, reference compound] | – | – | – | – | – | – | 0.4 ± 0.1 µg/mL (≈ 0.688 µM) | – | – | – | – | – | – | –
